Numbers after ± are expanded uncertainties.
Assay: osmotic coefficient (dimensionless); mn = molality of the nth substance listed, in mol/kg
Details: Liquid, vapor pressure osmometry

CCC[n+]1ccn(C)c1.[Br-] [1-methyl-3-propylimidazolium bromide] + O
osmotic coefficient
Details | 298.15 K | 308.15 K | 318.15 K | 328.15 K
m1 = 0.0071 | 0.942 ± 0.038 | 0.928 ± 0.037 | 0.961 ± 0.038 | 0.947 ± 0.038
m1 = 0.0141 | 0.917 ± 0.037 | 0.925 ± 0.037 | 0.951 ± 0.038 | 0.95 ± 0.038
m1 = 0.0243 | 0.903 ± 0.036 | 0.902 ± 0.036 | 0.925 ± 0.037 | 0.924 ± 0.037
m1 = 0.0338 | 0.894 ± 0.036 | 0.904 ± 0.036 | 0.92 ± 0.037 | 0.926 ± 0.037
m1 = 0.0462 | 0.89 ± 0.036 | 0.892 ± 0.036 | 0.91 ± 0.037 | 0.91 ± 0.037
m1 = 0.0667 | 0.865 ± 0.035 | 0.875 ± 0.035 | 0.898 ± 0.036 | 0.896 ± 0.036
m1 = 0.0898 | 0.855 ± 0.035 | 0.864 ± 0.035 | 0.874 ± 0.035 | 0.875 ± 0.035
m1 = 0.1081 | 0.839 ± 0.034 | 0.851 ± 0.034 | 0.867 ± 0.035 | 0.864 ± 0.035
m1 = 0.1529 | 0.82 ± 0.033 | 0.835 ± 0.034 | 0.857 ± 0.035 | 0.851 ± 0.034
m1 = 0.194 | 0.807 ± 0.033 | 0.816 ± 0.033 | 0.836 ± 0.034 | 0.842 ± 0.034
m1 = 0.2403 | 0.798 ± 0.033 | 0.802 ± 0.033 | 0.812 ± 0.033 | 0.818 ± 0.033
m1 = 0.3018 | 0.783 ± 0.032 | 0.792 ± 0.033 | 0.805 ± 0.033 | 0.813 ± 0.033
m1 = 0.3677 | 0.762 ± 0.032 | 0.772 ± 0.032 | 0.793 ± 0.033 | 0.794 ± 0.033
m1 = 0.4338 | 0.755 ± 0.031 | 0.761 ± 0.032 | 0.776 ± 0.032 | 0.787 ± 0.032
m1 = 0.5359 | 0.742 ± 0.031 | 0.749 ± 0.031 | 0.753 ± 0.031 | 0.76 ± 0.032
m1 = 0.8595 | 0.706 ± 0.03 | 0.72 ± 0.03 | 0.728 ± 0.031 | 0.735 ± 0.031
m1 = 1.029 | 0.702 ± 0.03 | 0.714 ± 0.03 | 0.717 ± 0.03 | 0.724 ± 0.031
m1 = 1.604 | 0.674 ± 0.029 | 0.696 ± 0.03 | 0.702 ± 0.03 | 0.704 ± 0.03
m1 = 2.104 | 0.676 ± 0.029 | 0.69 ± 0.03 | 0.694 ± 0.03 | 0.701 ± 0.03
m1 = 2.705 | 0.671 ± 0.029 | 0.683 ± 0.03 | 0.701 ± 0.03 | 0.709 ± 0.03

CCCCCCn1cc[n+](C)c1.[Br-] [3-hexyl-1-methyl-1H-imidazolium bromide] + O
osmotic coefficient
Details | 298.15 K | 308.15 K | 318.15 K | 328.15 K
m1 = 0.0155 | 0.876 ± 0.035 | 0.889 ± 0.036 | 0.91 ± 0.037 | 0.935 ± 0.037
m1 = 0.021 | 0.869 ± 0.035 | 0.87 ± 0.035 | 0.876 ± 0.035 | 0.911 ± 0.037
m1 = 0.0305 | 0.854 ± 0.035 | 0.858 ± 0.035 | 0.866 ± 0.035 | 0.869 ± 0.035
m1 = 0.0467 | 0.835 ± 0.034 | 0.838 ± 0.034 | 0.848 ± 0.034 | 0.861 ± 0.035
m1 = 0.0633 | 0.815 ± 0.033 | 0.811 ± 0.033 | 0.816 ± 0.033 | 0.821 ± 0.033
m1 = 0.0819 | 0.761 ± 0.032 | 0.763 ± 0.032 | 0.8 ± 0.033 | 0.815 ± 0.033
m1 = 0.121 | 0.741 ± 0.031 | 0.742 ± 0.031 | 0.775 ± 0.032 | 0.79 ± 0.032
m1 = 0.158 | 0.703 ± 0.03 | 0.732 ± 0.031 | 0.754 ± 0.031 | 0.76 ± 0.032
m1 = 0.1845 | 0.708 ± 0.03 | 0.727 ± 0.031 | 0.742 ± 0.031 | 0.75 ± 0.031
m1 = 0.2503 | 0.67 ± 0.029 | 0.69 ± 0.03 | 0.702 ± 0.03 | 0.719 ± 0.03
m1 = 0.3312 | 0.65 ± 0.029 | 0.659 ± 0.029 | 0.672 ± 0.029 | 0.67 ± 0.029
m1 = 0.4111 | 0.602 ± 0.028 | 0.605 ± 0.028 | 0.625 ± 0.028 | 0.63 ± 0.028
m1 = 0.5114 | 0.554 ± 0.027 | 0.585 ± 0.028 | 0.589 ± 0.028 | 0.592 ± 0.028
m1 = 0.5898 | 0.54 ± 0.027 | 0.546 ± 0.027 | 0.555 ± 0.027 | 0.569 ± 0.027
m1 = 0.6829 | 0.517 ± 0.027 | 0.513 ± 0.027 | 0.537 ± 0.027 | 0.544 ± 0.027
m1 = 0.7428 | 0.488 ± 0.027 | 0.489 ± 0.027 | 0.509 ± 0.027 | 0.514 ± 0.027
m1 = 1.119 | 0.384 ± 0.027 | 0.397 ± 0.027 | 0.413 ± 0.027 | 0.429 ± 0.027
m1 = 1.686 | 0.312 ± 0.027 | 0.322 ± 0.027 | 0.352 ± 0.027 | 0.362 ± 0.027
m1 = 2.398 | 0.271 ± 0.028 | 0.292 ± 0.028 | 0.309 ± 0.027 | 0.328 ± 0.027

CCCCCn1cc[n+](C)c1.[Br-] [1-pentyl-3-methylimidazolium bromide] + O
osmotic coefficient
Details | 298.15 K | 308.15 K | 318.15 K | 328.15 K
m1 = 0.0179 | 0.911 ± 0.037 | 0.987 ± 0.039 | 0.94 ± 0.038 | 1.01 ± 0.04
m1 = 0.025 | 0.925 ± 0.037 | 0.964 ± 0.039 | 0.924 ± 0.037 | 0.996 ± 0.04
m1 = 0.0301 | 0.906 ± 0.036 | 0.933 ± 0.037 | 0.912 ± 0.037 | 0.982 ± 0.039
m1 = 0.0518 | 0.878 ± 0.035 | 0.892 ± 0.036 | 0.895 ± 0.036 | 0.955 ± 0.038
m1 = 0.0722 | 0.861 ± 0.035 | 0.872 ± 0.035 | 0.882 ± 0.036 | 0.92 ± 0.037
m1 = 0.0904 | 0.852 ± 0.034 | 0.856 ± 0.035 | 0.871 ± 0.035 | 0.91 ± 0.037
m1 = 0.1155 | 0.826 ± 0.034 | 0.843 ± 0.034 | 0.857 ± 0.035 | 0.852 ± 0.034
m1 = 0.1697 | 0.808 ± 0.033 | 0.811 ± 0.033 | 0.831 ± 0.034 | 0.843 ± 0.034
m1 = 0.2113 | 0.793 ± 0.033 | 0.798 ± 0.033 | 0.816 ± 0.033 | 0.827 ± 0.034
m1 = 0.2308 | 0.785 ± 0.032 | 0.786 ± 0.032 | 0.813 ± 0.033 | 0.811 ± 0.033
m1 = 0.3311 | 0.745 ± 0.031 | 0.76 ± 0.032 | 0.776 ± 0.032 | 0.782 ± 0.032
m1 = 0.3787 | 0.726 ± 0.031 | 0.745 ± 0.031 | 0.762 ± 0.032 | 0.766 ± 0.032
m1 = 0.4716 | 0.704 ± 0.03 | 0.727 ± 0.031 | 0.749 ± 0.031 | 0.754 ± 0.031
m1 = 0.5627 | 0.694 ± 0.03 | 0.709 ± 0.03 | 0.72 ± 0.03 | 0.734 ± 0.031
m1 = 0.6532 | 0.679 ± 0.029 | 0.689 ± 0.03 | 0.697 ± 0.03 | 0.706 ± 0.03
m1 = 0.7246 | 0.669 ± 0.029 | 0.682 ± 0.03 | 0.692 ± 0.03 | 0.697 ± 0.03
m1 = 0.8353 | 0.657 ± 0.029 | 0.666 ± 0.029 | 0.68 ± 0.029 | 0.681 ± 0.029
m1 = 1.026 | 0.618 ± 0.028 | 0.637 ± 0.029 | 0.632 ± 0.028 | 0.649 ± 0.029
m1 = 1.509 | 0.583 ± 0.028 | 0.588 ± 0.028 | 0.594 ± 0.028 | 0.608 ± 0.028
m1 = 2.005 | 0.561 ± 0.027 | 0.565 ± 0.027 | 0.568 ± 0.027 | 0.594 ± 0.028

Source: the NIST ThermoML archive (doi:10.1016/j.jct.2008.07.011)
